{"source": "patent US20250090576A1", "about": "“METHODS FOR TREATING NONTUBERCULOUS MYCOBACTERIA DISEASES” (Microbion Corporation, priority 2022, published 2025)", "key": {"[1]": {"test_system": "M. abscessus strain 19977", "experiment": "Chronic M. abscessus lung infection in SCID/Beige mice, inhalation treatment 28 days", "assay_type": "in vivo", "conditions": "for CFU count in lung homogenates, effect in words: inhaled", "method": "A total of sixty female SCID/Beige mice between 6-8 weeks of age were used. Mice were placed up to 4 animals per cage and allowed 1 week of acclimation prior to infection.\nInoculums of M. abscessus strain 19977 (MAB) used in this study were made from highly virulent frozen stocks with low passage numbers. Bacteria were allowed to grow to log phase after 4 days on 7H10 media agar plates at 37° C. Once confluent, inoculums were made by suspending bacteria at 10^9 in Hank's balanced salt solution (HBSS) as determined by optical density (O.D.) and further quantified by serial dilution to determine the CFU/mL of suspension. At this higher concentration of bacteria, only 20 μL of inoculum was necessary to deposit […] bacteria per mouse.\nOn the day of infection mice were anesthetized with isoflurane by the drop jar method. Mice were scruffed in a standard one-handed grip and the nose of the mouse is held of a tube containing gauze containing a small amount of isoflurane. Mice were monitored for breathing and once rapid breaths have slowed down initially the mouse is removed from direct anesthesia and 20 μL of bacterial suspension was deposited on the left nostril. The mice then slowly breath in the droplet. Each mouse was then held in hand until complete consciousness was obtained and then the mouse was replaced into its home cage. After infection was initiated, 3 weeks were allowed to pass in order to allow the bacteria to establish a chronic lung pathology for eventual treatment.\nAfter establishing each infection, 12 mice were euthanized the day before treatment began to determine the baseline bacterial load. Mice were euthanized using CO2 in accordance with the recommendations of the Guide for the Care and Use of Laboratory Animals (NRC 2011). Lungs and spleens were collected and homogenized then serial diluted for CFU enumeration.\nA nose-only inhalation exposure chamber from CH technologies was used for this experiment. Mice were split into four treatment groups, Vehicle (buffer containing no BisEDT), amikacin (100 μg/kg/day), BisEDT “low” (200 μg/kg/day), and BisEDT “high” (1000 μg/kg/day). Each treatment group consisted of 12 mice. Ten of these mice were used for CFU determination and two mice are used for histology/pathology/lung pharmacokinetics. Treatment was conducted 6 days a week over the course of 28 days total. To create the correct level of deposited dose of each drug tested, 10 mL of test article were made. Amikacin in HBSS at 20 mg/mL was made and stored at 4° C. until needed. […]\nAfter 28 days of treatment with BisEDT, animals were euthanized by Co2 and secondary cardiac puncture to collect whole blood for quantitation of BisEDT concentration. […] CFUs were determined after serial dilution. […]"}, "[2]": {"test_system": "M. abscessus isolates from murine lung homogenates", "experiment": "MIC analysis of select bacterial isolates from murine lung homogenates", "assay_type": "cell-based", "conditions": "isolates from treated mouse lungs"}, "[3]": {"test_system": "M. abscessus from lung homogenates", "experiment": "Resistance plating of treated mouse lung homogenates on agar with 1 μg/ml BisEDT", "assay_type": "cell-based", "conditions": "mice treated with BisEDT for 28 days", "method": "Lung homogenates from the M. abscessus […] infection were thawed from frozen at 37° C. for 2 hours. To reduce the effect of the Dey-Engley deactivation buffer, mouse homogenates were diluted 1:10 in water before replating samples onto 7H10 agar plates containing 1 μg/ml BisEDT (MIC level). Once plated samples were incubated at 37° C. over 3 days and plate colonies were counted to determine CFUs of resistance.\nColony forming units were compared from the initial plating with no BisEDT in the agar plates; to replating on agar plates containing 1 μg/mL BisEDT."}, "[4]": {"experiment": "Earlier 28-day tolerability work on rats", "conditions": "28 days, doses as high as"}, "[5]": {"test_system": "M. abscessus cystic fibrosis patient strain 00703 in THP-1 macrophages", "experiment": "Mycobacterial survival (CFU) in infected THP-1 macrophages", "assay_type": "cell-based", "conditions": "CF patient strain 00703; after 3 days; drugs at MIC", "method": "(§1) THP-1 macrophages were differentiated with 50 ng/ml PMA for 24 hours, followed by 24 hours in media prior to infection. Differentiated THP-1 macrophages were either infected with M. avium strains or M. abscessus strains for 1 hour with an multiplicity of infection (MOI) of 5 or uninfected. Cells were washed twice, followed by 1 hour of antibiotic treatment with 200 μg/ml of amikacin to remove extracellular bacteria. After the antibiotic step, cells were washed once more and BisEDT (BIZ) or amikacin was added once to selected wells (see in vitro doses below).\n(§2) The treatments included: vehicle, amikacin, Soluble BisEDT (S Biz), Insoluble BisEDT (I Biz), and amikacin+BisEDT. The time points for sample preparation were 72 h for M. abscessus strains and 4- and 7-days post infection for M. avium strains. At the indicated timepoints cell media was removed and replaced with 400 ul of 0.1% triton x-100 in H2O for lysis. Wells were pipetted 25 times to disrupt cells then diluted and plated for CFU enumeration."}, "[6]": {"test_system": "M. abscessus cystic fibrosis patient strain 01715 in THP-1 macrophages", "experiment": "Mycobacterial survival (CFU) in infected THP-1 macrophages", "assay_type": "cell-based", "conditions": "CF patient strain 01715; after 3 days; drugs at MIC", "method": "as §1, §2"}, "[7]": {"test_system": "M. abscessus strain 19977 in THP-1 macrophages", "experiment": "Mycobacterial survival (CFU) in infected THP-1 macrophages", "assay_type": "cell-based", "conditions": "after 3 days, drugs at MIC", "method": "as §1, §2"}, "[8]": {"test_system": "M. abscessus strains in THP-1 macrophages", "experiment": "Infected THP-1 macrophages, summary over strains", "assay_type": "cell-based", "conditions": "3 days post-treatment", "method": "as §1, §2"}, "[9]": {"test_system": "three clinical isolates of M. avium in macrophages", "experiment": "Infected THP-1 macrophages, summary over strains", "assay_type": "cell-based", "conditions": "three clinical isolates of M. avium incl. amikacin-resistant isolate", "method": "as §1, §2"}, "[10]": {"test_system": "M. avium (MAH 104) in THP-1 macrophages", "experiment": "TEM of infected THP-1 macrophages (mechanism of action)", "assay_type": "cell-based", "conditions": "4 μg/ml insoluble BisEDT; 24 h and 48 h", "method": "(§3) THP-1 macrophages were differentiated with 50 ng/ml PMA for 24 hours, followed by 24 hours in media prior to infection. Differentiated THP-1 macrophages were infected with M. avium or M. abscessus for 1 hour with a multiplicity of infection (MOI) of 10. Infected cells were washed twice, followed by 1 hour of antibiotic treatment with 200 μg/ml of amikacin to remove extracellular bacteria. After the antibiotic step, cells were washed once more and 4 μg/ml insoluble BisEDT (BIZ) was added to selected wells. The treatments included: (1) untreated, (2) untreated+infected with MAH 104, (3) untreated+infected with M. abscessus, (4) BIZ treated, (5) BIZ treated+infected with MAH 104, and (6) BIZ treated+infected with M. abscessus. The time points for sample preparation were 24 h and 48 h.p.i. Cells were not washed prior to transmission electron microscopy TEM sample preparation, to preserve any extracellular bacteria that may have been present. Cells were detached by treatment with 5 mM EDTA for […], quenched with 1×HBSS, and suspended in fixative buffer with 2.5% glutaraldehyde, 1% formaldehyde, and 0.1 M sodium cacodylate for 24 hours prior to submission to the electron microscopy facility for processing. Samples were sectioned, dehydrated, and visualized by a FEIT Titan 80-200 TEM/STEM microscope."}, "[11]": {"test_system": "M. abscessus in THP-1 macrophages", "experiment": "TEM of infected THP-1 macrophages (mechanism of action)", "assay_type": "cell-based", "conditions": "4 μg/ml insoluble BisEDT; 24 h and 48 h", "method": "as §3"}, "[12]": {"test_system": "CF patient strain 00133 in THP-1 macrophages", "experiment": "Mycobacterial survival (CFU) in infected THP-1 macrophages", "assay_type": "cell-based, M. avium", "conditions": "amikacin-resistant CF patient strain 00133; each of the BisEDT formulations; 4 and 7 days", "method": "as §1, §2"}}, "data": [{"smiles": "C1C[S][Bi]([S]CC[S][Bi]2[S]CC[S]2)[S]1", "note": "[BisEDT, bismuth-1,2-ethanedithiol]", "values": [{"measurement": "lung CFU response, in words", "setting": "[1]; 200 and 1000 μg/kg/day inhaled", "result": "dose-dependent response"}, {"measurement": "tolerability in infected mice", "setting": "[1]; 200 and 1000 μg/kg/day inhaled, mice responsive, normal weight range", "result": "well tolerated"}, {"measurement": "CFU count in lung homogenates, effect in words", "setting": "[1]; BisEDT high, 1000 μg/kg", "result": "bactericidal"}, {"measurement": "CFU count in lung homogenates, effect in words", "setting": "[1]; BisEDT low, 200 μg/kg", "result": "bacteriostatic effect"}, {"measurement": "MIC of select isolates, in words", "setting": "[2]", "result": "did not show a change in resistance"}, {"measurement": "development of resistance, in words", "setting": "[3]", "result": "little development of resistance"}, {"measurement": "dose with high tolerability, without adverse effects", "setting": "[4]", "result": 59, "unit": "µg/kg/day"}, {"measurement": "mycobacterial survival (CFU, bacterial load) in THP-1 macrophages, in words", "setting": "[5]", "result": "greatly reduced bacterial load in macrophages"}, {"measurement": "mycobacterial survival (CFU, bacterial load) in THP-1 macrophages, in words", "setting": "[6]", "result": "greatly reduced bacterial load in macrophages"}, {"measurement": "mycobacterial survival (CFU, bacterial load) in THP-1 macrophages, in words", "setting": "[7]", "result": "reduced bacterial loads in THP-1 cells"}, {"measurement": "effect in infected macrophages, in words", "setting": "[8]", "result": "bactericidal by itself"}, {"measurement": "effect in infected macrophages, in words", "setting": "[9]", "result": "bactericidal"}, {"measurement": "TEM observation on mycobacteria cell wall", "setting": "[10]", "result": "loss of the integrity of the polar region initially, and the whole cell wall in a more advanced stage"}, {"measurement": "TEM observation on mycobacteria cell wall", "setting": "[11]", "result": "loss of the integrity of the polar region initially, and the whole cell wall in a more advanced stage"}, {"measurement": "mycobacterial survival (CFU) in THP-1 macrophages, in words", "setting": "[12]", "result": "bacteriostatic effect"}]}]}
